The text below walks through data of patent US20230393140A1, “BINDING ASSAYS INVOLVING A PLURALITY OF SYNTHETIC COMPOUNDS, TARGETS, AND COUNTER TARGETS” (SRI International, priority 2020, published 2023).

In one assay the target is T1, cRaf/K-Ras (G12V) PPI (Homo sapiens, UniProt P01116, G12V).
T1 construct: b-Kras G12V (GppNHp) (aa 2-169); biotin (b-
As to the kind of experiment: K-Ras-cRaf HTRF-based PPI profiling.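 On blank corrected HTRF: background is the signal of wells with all components except cRaf.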 As to conditions: for blank corrected HTRF: raw data, compounds without fluorescein. The format is biochemical. The protocol:
In some experimental embodiments, a buffer was added to the assay wells which included […] HEPES pH 7.4, 150 mM NaCl, 5 mM MgCl2, 1 mM DTT, 0.005% NP40, and 1% DMSO. 5 uL of 3×K-Ras protein was then added to the assay wells, followed by the synthetic compounds which were added using acoustic technology (ECHO, Labcyte) followed by thirty minutes incubation at room temperature. Afterwards, 5 uL of 3×cRaf protein was added to the assay wells and 5 uL of detection mix was then added to the assay wells after 30 minutes. The detection mix included Mab anti-GST-Tb cryptate (Cisbio 61GSTTLB) and streptavidin-XL665 (Ex/Em=(337/665; 620) in PHERAstar (BMG Labtech)). HTRF signal was measured […] later.
The data includes raw data (signal-background without cRaf protein but with all other component), % binding (relative to DMSO controls), and curve fits. Curve fits were performed when the activities at the highest concentration of the synthetic compounds were less than 65%. Tables 18A-18B below includes the raw data (e.g., blank corrected HTRF) and Tables 19A-19B includes the % binding.
In general terms: Time-resolved FRET reads energy transfer from a long-lived donor to a nearby acceptor.

A further assay has as its system biotinylated GST. As to the kind of experiment: Interference check with biotinylated GST and detection mix. From the text:
Table 20 below provides an interference check on the synthetic compounds using biotinylated GST, which was used with the detection mix to check for compound effect on fluorescence.

Another assay has as its target T2, K-Ras (Homo sapiens, UniProt P01116, G12V).
T2 construct: purchased Cytoskeleton Inc. CS-RS04
As to the kind of experiment: MST binding affinity of resynthesized NNP hits to K-Ras. As to the method:
Loading was performed according to the following protocol: The 200 μM stock solution of the target protein was diluted to 10 μM in 20 mM HEPES pH 8.0, 150 mM NaCl, 10 mM MgCl2, 1 mM TCEP, 0.05% Tween-20 (total volume 110 μL). 10 μL were set aside for later labeling quality control. EDTA pH 8.0 (stock concentration 10 mM) was added to the protein solution to a final concentration of 80 μM. GTP (stock concentration 50 mM) was added to the protein solution to a final concentration of 750 μM. The solution was incubated at 30° C. for 2 hours (PCR tube) and then placed on ice for 2 minutes. MgCl2 was added to the protein solution to a final concentration of 100 mM. The resulting protein solution was buffer exchanged into the buffer required in the labeling kit for labeling. […] All the other target molecules (TNFα, IL-6, IL-6R and ASGPR) were used as received without any additional treatment.
(§1) Hit binding affinity to various targets were determined using Microscale Thermophoresis (MST). MST experiments were performed on a Monolith NT.115pico (NanoTemper Technologies GmbH, Munich, Germany). Measurements were performed at room temperature, in triplicate with incubation periods of 15, 30 and 45 minutes. […] Targets were labeled using Nanotemper Monolith 2nd Generation Protein Labeling Kits. RED-MALEIMIDE (Maleimide-647-dye) labeling kit was used for K-Ras and RED-NHS (NHS-647-dye) labeling kit was used for IL-6, IL-6R, TNFα and ASGPR. The buffer for the ASGPR contained 20 mM HEPES pH 7.4, 150 mM NaCl, 10 mM MgCl2, 2 mM CaCl2, 0.05% Pluronic F-127, and 1 mM DTT; for IL-6 contained 20 mM HEPES pH 7.4, 150 mM KCl, 10 mM MgCl2, and 0.1% Pluronic F-127; for the soluble IL-6 receptor 20 mM HEPES pH 7.4, 150 mM NaCl, 10 mM MgCl2, and 0.05% Tween-20; for K-Ras 20 mM HEPES pH 7.4, 150 mM NaCl, 10 mM MgCl2, 0.05% Tween-20 and 1 mM DTT; for TNFα 10 mM HEPES pH 7.4, 150 mM NaCl, 10 mM MgCl2, 0.05% Polysorbate-20. Triplicate data was analyzed using MO.AffinityAnalysis software (NanoTemper Technologies GmbH).

A further assay deals with TNFα (Homo sapiens, UniProt P01375). The experiment in a line: MST binding affinity of resynthesized NNP hits to TNFα. Further details: purchased R&D Systems, Inc. 210-TA/CF. The settings on record: read-out: KD (nM) [95% conf. int], NNP2 library hit, target TNFα, one-site binding model. The protocol:
as §1

Like-named read-outs stand apart in the source and are kept apart here. Marks after values point to notes of the source that are not given here. Numbered stars: 1 amine (or outer) side, 2 acyl side, 3 side chain; on linkers, the order of the positions; unused ones are H or OH. Square brackets hold non-standard residues; d marks the D form. Peptide text beside a SMILES is read from it. * marks the point of attachment. 5FAM = O=C1OC2(c3ccc(O)cc3Oc3cc(O)ccc32)c2ccc(C(=O)*)cc21; NHCH2C6H4(4-CH2CONH2) = NC(=O)Cc1ccc(CN*)cc1; X1 = O=C(Cc1ccc(CN[*:1])cc1)[*:2]

Chain of TNFα (P01375 77-233 limits assumed): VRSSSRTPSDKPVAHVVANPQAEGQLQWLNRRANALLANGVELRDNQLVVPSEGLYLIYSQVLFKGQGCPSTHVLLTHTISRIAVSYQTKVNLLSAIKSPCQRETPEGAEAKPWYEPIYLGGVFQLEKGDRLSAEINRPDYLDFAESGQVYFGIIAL

Regarding `CC(C)C[C@H](NC(=O)[C@@H](CCC(=O)O)NC(=O)[C@H]1CCCN1C(=O)[C@@H](Cc1ccccc1)NC(=O)[C@@H](CO)NC(=O)c1ccc2c(c1)C(=O)OC21c2ccc(O)cc2Oc2cc(O)ccc21)C(=O)NCc1ccc(CC(=O)NCC(=O)N[C@@H](C(=O)N2CCC[C@@H]2C(=O)N[C@H](CCCNC(=N)N)C(=O)N[C@@H](C)C(=O)NCc2ccc(CC(=O)N3CCC[C@@H]3C(=O)N[C@H](CO)C(=O)N[C@H](CCC(=O)O)C(=O)N[C@H](CCCNC(=N)N)C(=O)NCC(=O)NCc3ccc(CC(=O)N4CCC[C@@H]4C(=O)N[C@H](CCCCN)C(=O)N[C@H](Cc4ccc(O)cc4)C(=O)N[C@H](CCCNC(=N)N)C(=O)N[C@@H](Cc4ccccc4)C(=O)NCc4ccc(CC(=O)N[C@H](CCCNC(=N)N)C(=O)N[C@H](Cc5ccccc5)C(=O)N5CCC[C@@H]5C(=O)N[C@@H](C(=O)NCC(=O)NCc5ccc(CC(=O)NCC(=O)N[C@H](Cc6c[nH]c7ccccc67)C(=O)N[C@H](Cc6c[nH]cn6)C(=O)N[C@H](CCCNC(=N)N)C(=O)N[C@@H](C)C(=O)NCc6ccc(CC(N)=O)cc6)cc5)C(C)C)cc4)cc3)cc2)C(C)C)cc1` [KRAS-1-9] (5FAM-[dS][dF][dP][dE]L[X1]G[dV][dP][dR]A[X1][dP][dS][dE][dR]G[X1][dP][dK][dY][dR]F[X1][dR][dF][dP][dV]G[X1]G[dW][dH][dR]A-{NHCH2C6H4(4-CH2CONH2)}), the HillSlope on cRaf/K-Ras (G12V) PPI (curve fit of % binding, K-Ras G12V 30 nM, GST-cRaf 10 nM) was −0.9902. Moreover, the “blank corrected HTRF” value came to 4707 on cRaf/K-Ras (G12V) PPI (conc. 1.00E−05); 7790 on cRaf/K-Ras (G12V) PPI (conc. 1.11E−06); 12329 at cRaf/K-Ras (G12V) PPI (conc. 1.37E−08); 3269 on cRaf/K-Ras (G12V) PPI (conc. 3.33E−06); 12513 at cRaf/K-Ras (G12V) PPI (conc. 3.70E−07); 14333 on cRaf/K-Ras (G12V) PPI (conc. 4.12E−08). At cRaf/K-Ras (G12V) PPI (conc. 4.57E−09), the “blank corrected HTRF” value worked out at 13688. Also, the “% signal compared to DMSO” value in the assay on biotinylated GST (assay conc. 0.000508053 μM) turned out to be 99.72%; with biotinylated GST (assay conc. 0.001524158 μM), 102.8%; with biotinylated GST (assay conc. 0.004572474 μM), 100.2%; in the assay on biotinylated GST (assay conc. 0.013717421 μM), 101.4%; with biotinylated GST (assay conc. 0.041152263 μM), 102.8%; in the assay with biotinylated GST (assay conc. 0.12345679 μM), 101.5%. For the same compound, the “% signal compared to DMSO” value in the assay with biotinylated GST (assay conc. 0.37037037 μM) was 99.8%; with biotinylated GST (assay conc. 1.111111111 μM) it was 92.41%; in the assay on biotinylated GST (assay conc. 3.333333333 μM), 69.59%; with biotinylated GST (assay conc. 10 μM) it was 53.69* %. For the same compound, the Kd (usually the constant that tells how readily two partners part at equilibrium) at K-Ras (K-Ras, compound with fluorescein on N-term, read-out: KD[nM] in MST (with fluorescein on N-term)) stood at 32 nM; at K-Ras (read-out: KD (nM) [95% conf. int], MST, NNP1 library hit, target K-Ras, one-site binding model), 32 nM.

In the case of `CC(C)C[C@H](NC(=O)[C@@H](CCCCN)NC(=O)[C@@H](Cc1ccccc1)NC(=O)Cc1ccc(CNC(=O)[C@H](CC(C)C)NC(=O)[C@@H](CCCCN)NC(=O)[C@@H](CC(C)C)NC(=O)Cc2ccc(CNC(=O)[C@H](Cc3ccccc3)NC(=O)[C@@H](C)NC(=O)[C@@H](C)NC(=O)Cc3ccc(CNC(=O)[C@H](CC(C)C)NC(=O)[C@H](NC(=O)[C@@H](CCCCN)NC(=O)c4ccc5c(c4)C(=O)OC54c5ccc(O)cc5Oc5cc(O)ccc54)C(C)C)cc3)cc2)cc1)C(=O)NCc1ccc(CC(=O)N[C@H](Cc2c[nH]c3ccccc23)C(=O)N[C@H](CCCNC(=N)N)C(=O)N[C@H](C(=O)NCc2ccc(CC(=O)N[C@H](CO)C(=O)N[C@H](CO)C(=O)N[C@@H](Cc3ccccc3)C(=O)NCc3ccc(CC(=O)N[C@H](Cc4c[nH]cn4)C(=O)N[C@H](CCC(=O)O)C(=O)N[C@@H](CC(C)C)C(=O)NCc4ccc(CC(=O)N[C@H](Cc5ccccc5)C(=O)N[C@H](CCCCN)C(=O)N[C@@H](Cc5ccccc5)C(=O)NCc5ccc(CC(=O)N[C@@H](C(=O)N[C@H](CCC(=O)O)C(=O)N[C@@H](CC(C)C)C(=O)NCc6ccc(CC(N)=O)cc6)[C@H](C)O)cc5)cc4)cc3)cc2)C(C)C)cc1` [TNF-31-2] (5FAM-[dK][dV]L[X1][dA][dA]F[X1][dL][dK]L[X1][dF][dK]L[X1][dW][dR]V[X1][dS][dS]F[X1][dH][dE]L[X1][dF][dK]F[X1][dT][dE]L-{NHCH2C6H4(4-CH2CONH2)}), the Kd on TNFα was 23 nM.

As to `CC(C)C[C@H](NC(=O)[C@@H](CCCNC(=N)N)NC(=O)[C@@H](Cc1c[nH]c2ccccc12)NC(=O)Cc1ccc(CNC(=O)[C@H](CC(C)C)NC(=O)[C@@H](CCCCN)NC(=O)[C@@H](CC(C)C)NC(=O)Cc2ccc(CNC(=O)[C@H](CC(C)C)NC(=O)[C@@H](CCCNC(=N)N)NC(=O)[C@@H](CC(C)C)NC(=O)Cc3ccc(CNC(=O)[C@H](Cc4ccccc4)NC(=O)[C@@H](CC(C)C)NC(=O)[C@H](NC(=O)c4ccc5c(c4)C(=O)OC54c5ccc(O)cc5Oc5cc(O)ccc54)[C@H](C)O)cc3)cc2)cc1)C(=O)NCc1ccc(CC(=O)N[C@H](C)C(=O)N[C@H](CCCCN)C(=O)N[C@@H](Cc2ccccc2)C(=O)NCc2ccc(CC(=O)N[C@H](CCC(=O)O)C(=O)N[C@H](CO)C(=O)N[C@H](C(=O)NCc3ccc(CC(=O)N4CCC[C@@H]4C(=O)N[C@@H](C(=O)NCC(=O)NCc4ccc(CC(=O)N[C@H](CCC(=O)O)C(=O)N[C@H](Cc5ccc(O)cc5)C(=O)N[C@@H](Cc5ccccc5)C(=O)NCc5ccc(CC(=O)N[C@H](Cc6ccc(O)cc6)C(=O)N[C@H](CCCNC(=N)N)C(=O)N[C@@H](Cc6ccccc6)C(=O)NCc6ccc(CC(N)=O)cc6)cc5)cc4)C(C)C)cc3)C(C)C)cc2)cc1` [TNF-31-4] (5FAM-[dT][dL]F[X1][dL][dR]L[X1][dL][dK]L[X1][dW][dR]L[X1][dA][dK]F[X1][dE][dS]V[X1][dP][dV]G[X1][dE][dY]F[X1][dY][dR]F-{NHCH2C6H4(4-CH2CONH2)}), the Kd at TNFα was 33 nM.

Turning to `CC(C)C[C@H](NC(=O)[C@@H](CCCNC(=N)N)NC(=O)CNC(=O)Cc1ccc(CNC(=O)[C@H](CC(C)C)NC(=O)[C@H](NC(=O)[C@@H](CCCCN)NC(=O)c2ccc3c(c2)C(=O)OC32c3ccc(O)cc3Oc3cc(O)ccc32)C(C)C)cc1)C(=O)NCc1ccc(CC(=O)N[C@H](Cc2ccccc2)C(=O)N[C@H](CCC(=O)O)C(=O)N[C@H](C(=O)NCc2ccc(CC(=O)N3CCC[C@@H]3C(=O)N[C@H](CCCNC(=N)N)C(=O)N[C@H](C(=O)NCc3ccc(CC(=O)N[C@H](C)C(=O)N[C@H](CCCCN)C(=O)N[C@@H](Cc4ccccc4)C(=O)NCc4ccc(CC(=O)N[C@H](CCC(=O)O)C(=O)N[C@H](CO)C(=O)N[C@H](C(=O)NCc5ccc(CC(=O)N6CCC[C@@H]6C(=O)N[C@@H](C(=O)NCC(=O)NCc6ccc(CC(=O)N[C@@H](C(=O)N[C@H](Cc7c[nH]cn7)C(=O)N[C@@H](CC(C)C)C(=O)NCc7ccc(CC(=O)N[C@H](Cc8ccc(O)cc8)C(=O)N[C@H](CCCNC(=N)N)C(=O)N[C@@H](Cc8ccccc8)C(=O)NCc8ccc(CC(N)=O)cc8)cc7)[C@H](C)O)cc6)C(C)C)cc5)C(C)C)cc4)cc3)C(C)C)cc2)C(C)C)cc1` [TNF-31-5] (5FAM-[dK][dV]L[X1]G[dR]L[X1][dF][dE]V[X1][dP][dR]V[X1][dA][dK]F[X1][dE][dS]V[X1][dP][dV]G[X1][dT][dH]L[X1][dY][dR]F-{NHCH2C6H4(4-CH2CONH2)}), on TNFα, the Kd was 24 nM.
